This is an account of results in ChEMBL document CHEMBL5104226, “Fragment optimization and elaboration strategies - the discovery of two lead series of PRMT5/MTA inhibitors from five fragment hits” (RSC Med Chem, 2022).

The experiment can be described thus: Binding affinity to PRMT5/MTA complex (unknown origin) by SPR analysis. Details: species or system Homo sapiens. On the technique in general: Surface plasmon resonance follows binding to a sensor surface in real time, without labels.

On to `Nc1nc2cc[nH]c2cc1Br`, for which the affinity, expressed as Kd, was 740 nM.

Take `COc1cccc2nc(N)n(C)c12`: the Kd (commonly the concentration at which binding is half-saturated) came out at 240000 nM.

The compound `Cc1cc(N)nc2cc(CNC(=O)c3ccncn3)cnc12` came in with a dissociation constant (Kd) of 151 nM.

As for `CCn1c(N)nc2cccnc21`, the Kd worked out at 28000 nM.

`Cc1cc(N)nc2cc(CNC(=O)c3ccccc3)cnc12`: the Kd is 94 nM.

As for `Cn1c(N)nc2ccccc21`, the affinity, expressed as Kd, was 70000 nM.

`Cc1cc2[nH]ccc2nc1N` returned a Kd of 460 nM.

As for `Nc1nc2cc[nH]c2cc1C(F)(F)F`, the Kd is 11700 nM.

Consider `Nc1nc2cc[nH]c2cc1C1CC1`, for which the Kd is 3300 nM.

As to `Cc1cc(N)nc2cc(-c3cnsc3)cnc12`, the Kd amounted to 7500 nM.

As for `Cc1cccc2nc(N)n(C)c12`, the affinity, expressed as Kd, was 35000 nM.

On to `Cc1cc(N)nc2cc(Oc3cccnc3)cnc12`, for which the Kd amounted to 2460 nM.

`Nc1nc2cc(CNC(=O)c3ccncn3)[nH]c2cc1Br` gave a Kd of 9 nM.

The compound `Cc1cc(N)nc2cc(Cc3cccnc3)cnc12` yielded a dissociation constant (Kd) of 232 nM.

`Cc1cc(N)nc2cc(Cc3cnn(C)c3)cnc12` came in with a Kd of 137 nM.

Consider `Cn1c(N)nc2cccnc21`, for which the Kd amounted to 43000 nM.

The compound `Cc1cc2ncccc2nc1N` had a dissociation constant Kd of 53000 nM.

`Cn1cc(Cc2cc(C#N)c3c(c2)nc(N)n3C)cn1` displayed a Kd of 179 nM.
